Assay results published in patent US6441006B2, “Pharmaceutical compositions and methods for use” (Targacept, Inc., priority 1998, dated 2002).
“And” between values parts separate entries of the source, which are not always exact repeats. Equal values may be shown once.

Legend:
CNS nicotinic receptors = molecular target: T1, CNS nicotinic receptors (Rattus norvegicus, UniProt P09483+P12390); test: Binding to relevant receptor sites; conditions: calculated from IC50 values using the method of Cheng et al.
T1 construct: Ki
Experimental: Binding of the compounds to relevant receptor sites was determined in accordance with the techniques described in U.S. Pat. No. 5,597,919 to Dull et al. Inhibition constants (Ki values), reported in nM, were calculated from the IC50 values using the method of Cheng et al., Biochem, Pharmacol. 22:3099 (1973).

Rat brain synaptosomes = test: Neurotransmitter release from brain synaptosomes; format: biochemical; conditions: in the presence of 10 µM of ligand; percentage of release obtained with 10 µM (S)-(-)-nicotine or 300 µM TMA
Experimental: Neurotransmitter release was measured using techniques similar to those previously published (Bencherif M, et al. JPET 279: 1413-1421, 1996).
Rat brain synaptosomes were prepared as follows: Female Sprague Dawley rats (100-200 g) were killed by decapitation after anesthesia with 70% CO2. Brains are dissected, and hippocampus, striatum, and thalamus isolated, and homogenized in 0.32 M sucrose containing 5 mM HEPES pH 7.4 using a glass/glass homogenizer. The tissue was then centrifuged for 1000×g for 10 minutes and the pellet discarded. The supernatant was centrifuged at 12000×g for 20 minutes. The resultant pellet was re-suspended in perfusion buffer (128 mM NaCl, 1.2 mM KH2PO4, 2.4 mM KCl, 3.2 mM CaCl2, 1.2 mM MgSO4, 25 mM HEPES, 1 mM Ascorbic acid, 0.01 mM pargyline HCl and 10 mM glucose pH 7.4) and centrifuged for 15 minutes at 25000×g. The final pellet was resuspended in perfusion buffer and placed in a water bath (37° C.) for 10 minutes. Radiolabeled neurotransmitter is added (30 L^3H DA, 20 L^3H NE, 10 L^3H glutamate) to achieve a final concentration of 100 nM, vortexed and placed in a water bath for additional 10 minutes. Tissue-loaded filters is placed onto 11-mm diameter Gelman A/E filters on an open-air support. After a 10-minute wash period, fractions are collected to establish the basal release and agonist applied in the perfusion stream. Further fractions were collected after agonist application to re-establish the baseline. The perfusate was collected directly into scintillation vials and released radioactivity was quantified using conventional liquid scintillation techniques. Release of neurotransmitter was determined in the presence of […] of various ligands and was expressedas a percentage of release obtained with a concentration of 10 M (S)-(−)-nicotine or 300 MTMA resulting in maximal effects.

[1] = system: ganglia-type nicotinic acetylcholine receptors; test: Interaction with ganglion receptors; format: cell-based; conditions: Emax, percentage of maximal activation induced by (S)-(-)-nicotine
Experimental: (§1) The determination of the interaction of the compounds with ganglionic receptors was carried out in accordance with the techniques described in U.S. Pat. No. 5,597,919 to Dull et al. The maximal activation for individual compounds (Emax) was determined as a percentage of the maximal activation induced by (S)-(−)-nicotine. Reported Emax values represent the amount released relative to (S)-(−)-nicotine on a percentage basis. […] Such preferable compounds have the capability to activate human CNS receptors without activating ganglia-type nicotinic acetylcholine receptors. Thus, there is provided a therapeutic window for utilization in the treatment of CNS disorders. […] The compounds begin to cause effects at ganglia only when employed in amounts of many times those required to activate dopamine release.
The determination of the interaction of the compounds with ganglionic receptors was carried out in accordance with the techniques described in U.S. Pat. No. 5,597,919 to Dull et al. The maximal activation for individual compounds (Emax) was determined as a percentage of the maximal activation induced by (S)-(−)-nicotine. Reported Emax values represent the amount released relative to (S)-(−)-nicotine on a percentage basis.

[2] = molecular target: T2, muscle-type nicotinic acetylcholine receptors (Homo sapiens, UniProt P02708+P07510+Q07001); test: Interaction with muscle receptors; format: cell-based; conditions: Emax, percentage of maximal activation induced by (S)-(-)-nicotine
T2 construct: endogenous in cells; host or cells: TE671/RD (own knowledge of the cited US 5,597,919)
Experimental: as §1, with “muscle” for “ganglionic”, “muscle-type” for “ganglia-type”, “cause muscle” for “cause”, “effects” for “effects at ganglia”

T1 sequence (P09483 31-630): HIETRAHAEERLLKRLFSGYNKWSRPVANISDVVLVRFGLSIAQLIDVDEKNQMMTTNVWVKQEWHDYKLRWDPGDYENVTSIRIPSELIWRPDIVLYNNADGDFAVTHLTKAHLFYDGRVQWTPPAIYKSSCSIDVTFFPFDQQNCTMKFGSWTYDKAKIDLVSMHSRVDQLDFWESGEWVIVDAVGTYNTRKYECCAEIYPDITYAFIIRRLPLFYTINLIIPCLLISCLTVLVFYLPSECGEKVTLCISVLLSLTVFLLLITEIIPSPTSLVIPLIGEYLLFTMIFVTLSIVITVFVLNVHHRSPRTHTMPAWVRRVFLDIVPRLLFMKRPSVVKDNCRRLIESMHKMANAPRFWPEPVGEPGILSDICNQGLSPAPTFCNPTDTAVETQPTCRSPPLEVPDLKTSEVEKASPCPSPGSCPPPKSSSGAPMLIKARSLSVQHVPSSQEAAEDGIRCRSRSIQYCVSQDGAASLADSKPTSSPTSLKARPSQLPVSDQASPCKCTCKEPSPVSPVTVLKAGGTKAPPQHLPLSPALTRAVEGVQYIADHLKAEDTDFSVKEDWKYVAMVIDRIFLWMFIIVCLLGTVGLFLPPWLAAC
T1 sequence (P12390 25-500): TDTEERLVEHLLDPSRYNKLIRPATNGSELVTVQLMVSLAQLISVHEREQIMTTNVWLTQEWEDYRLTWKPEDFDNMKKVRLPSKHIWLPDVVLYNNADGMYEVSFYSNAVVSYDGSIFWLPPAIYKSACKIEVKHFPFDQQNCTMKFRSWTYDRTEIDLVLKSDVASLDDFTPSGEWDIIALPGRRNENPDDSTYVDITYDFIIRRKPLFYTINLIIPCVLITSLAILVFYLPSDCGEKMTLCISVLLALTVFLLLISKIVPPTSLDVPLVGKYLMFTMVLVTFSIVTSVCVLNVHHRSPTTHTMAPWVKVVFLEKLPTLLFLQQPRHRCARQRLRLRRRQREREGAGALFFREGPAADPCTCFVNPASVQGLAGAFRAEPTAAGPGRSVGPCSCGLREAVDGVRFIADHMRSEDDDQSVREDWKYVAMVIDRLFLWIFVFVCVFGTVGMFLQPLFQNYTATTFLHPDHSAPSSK
T2 sequence (P02708 21-457): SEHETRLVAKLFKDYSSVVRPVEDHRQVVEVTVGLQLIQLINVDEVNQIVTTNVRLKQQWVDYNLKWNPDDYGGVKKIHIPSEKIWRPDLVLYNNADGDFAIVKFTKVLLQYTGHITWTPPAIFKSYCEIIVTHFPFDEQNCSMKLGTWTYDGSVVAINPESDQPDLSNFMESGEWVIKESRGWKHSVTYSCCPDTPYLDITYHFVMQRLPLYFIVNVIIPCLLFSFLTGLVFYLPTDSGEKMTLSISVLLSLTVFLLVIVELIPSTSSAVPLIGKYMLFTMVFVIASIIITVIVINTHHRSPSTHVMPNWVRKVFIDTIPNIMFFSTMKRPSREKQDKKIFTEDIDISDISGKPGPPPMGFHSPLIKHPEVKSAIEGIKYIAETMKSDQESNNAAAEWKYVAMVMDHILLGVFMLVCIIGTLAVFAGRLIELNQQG
T2 sequence (P11230 24-501 partner): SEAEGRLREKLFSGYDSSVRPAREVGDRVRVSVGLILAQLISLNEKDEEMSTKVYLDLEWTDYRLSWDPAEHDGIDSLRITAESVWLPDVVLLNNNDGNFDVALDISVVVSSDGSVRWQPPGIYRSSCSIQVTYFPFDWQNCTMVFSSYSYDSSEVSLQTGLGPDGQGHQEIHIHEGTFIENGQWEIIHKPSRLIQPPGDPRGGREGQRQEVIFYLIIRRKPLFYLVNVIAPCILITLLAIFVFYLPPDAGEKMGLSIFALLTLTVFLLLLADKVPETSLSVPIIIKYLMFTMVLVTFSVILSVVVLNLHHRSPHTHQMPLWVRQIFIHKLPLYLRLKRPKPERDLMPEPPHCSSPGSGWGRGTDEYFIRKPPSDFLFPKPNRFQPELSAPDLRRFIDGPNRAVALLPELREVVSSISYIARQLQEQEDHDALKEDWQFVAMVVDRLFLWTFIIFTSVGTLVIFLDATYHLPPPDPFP
T2 sequence (Q07001 22-517): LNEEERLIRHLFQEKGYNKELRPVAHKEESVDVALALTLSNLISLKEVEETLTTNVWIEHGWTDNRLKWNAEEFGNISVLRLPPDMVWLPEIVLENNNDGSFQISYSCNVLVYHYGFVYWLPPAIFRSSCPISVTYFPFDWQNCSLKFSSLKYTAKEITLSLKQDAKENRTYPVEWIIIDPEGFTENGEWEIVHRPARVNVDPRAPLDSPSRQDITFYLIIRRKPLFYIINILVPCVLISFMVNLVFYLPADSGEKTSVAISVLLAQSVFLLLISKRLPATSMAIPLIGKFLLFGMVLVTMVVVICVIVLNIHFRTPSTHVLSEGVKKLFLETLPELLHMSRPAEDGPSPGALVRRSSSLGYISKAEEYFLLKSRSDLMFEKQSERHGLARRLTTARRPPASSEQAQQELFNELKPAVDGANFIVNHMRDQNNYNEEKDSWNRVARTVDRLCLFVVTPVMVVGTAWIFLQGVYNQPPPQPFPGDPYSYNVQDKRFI
T2 sequence (P07510 23-517): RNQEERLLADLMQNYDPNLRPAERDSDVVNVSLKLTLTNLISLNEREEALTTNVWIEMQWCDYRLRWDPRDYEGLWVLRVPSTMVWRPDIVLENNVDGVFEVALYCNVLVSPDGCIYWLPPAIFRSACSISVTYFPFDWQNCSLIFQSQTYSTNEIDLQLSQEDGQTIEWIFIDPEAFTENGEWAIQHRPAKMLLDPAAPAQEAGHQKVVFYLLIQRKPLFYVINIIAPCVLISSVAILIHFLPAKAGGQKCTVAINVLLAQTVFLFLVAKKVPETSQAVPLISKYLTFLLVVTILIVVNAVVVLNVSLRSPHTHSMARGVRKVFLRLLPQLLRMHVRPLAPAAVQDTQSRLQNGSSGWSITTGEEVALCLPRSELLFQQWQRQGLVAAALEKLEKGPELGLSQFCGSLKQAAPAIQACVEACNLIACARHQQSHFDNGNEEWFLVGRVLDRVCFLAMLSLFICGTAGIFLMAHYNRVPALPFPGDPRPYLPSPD

Molecule	Ki (CNS nicotinic receptors) [nM]	neurotransmitter release (Rat brain synaptosomes)	effect at ganglia sites [1] [%]	effect at muscle sites [2] [%]	melting point [°C]
2-(3-Pyridyloxy)ethylamine Hemigalactarate [Example 7]	1600	30%	–	–	–
3-(3-Aminopropoxy)phenylamine Hemigalactarate [Example 29]	442	14%	–	–	–
3-(3-Pyridyloxy)propylamine Hemigalactarate [Example 10]	–	0%	0	0	–
3-(5-Chloro-3-pyridyloxy)propylamine Hemigalactarate [Example 15]	46	110%	4	0	–
4-(3-Pyridyloxy)butylamine Hemigalactarate [Example 12]	232	100%	11	0	–
CN(C)CCOc1cccnc1 [Example 9, Dimethyl(2-(3-pyridyloxy)ethylamine Hemigalactarate]	–	0%	0	0	–
CC(C)NCCCOc1cccnc1 [Example 23, (Methylethyl)(3-(3-pyridyloxy)propyl)amine]	8500	16%	–	–	–
c1ccc(CNCCCOc2cccnc2)cc1 [Example 24, Benzyl(3-(3-pyridyloxy)propyl)amine]	–	29%	–	–	–
Cl.Cl.c1cncc(OC2CCNCC2)c1 [Example 35, 3-(4-Piperidinyloxy)pyridine Dihydrochloride]	–	–	9	16	71 to 73.5
(2-(5-Bromo(3-pyridylthio))ethyl)methylamine Hemigalactarate [Example 38]	3400	–	–	–	–
(3-(3-Aminophenoxy)propyl)methylamine Hemigalactarate [Example 30]	64	30% and 60%	5	11	–
(3-(5-Bromo(3-pyridyloxy))propyl)methylamine Hemigalactarate [Example 6]	44	–	–	–	–
(3-(5-Chloro(3-pyridyloxy))-1-methylpropyl)methylamine Hemigalactarate [Example 27]	1600	30%	–	–	–
(3-(5-Chloro(3-pyridyloxy))propyl)methylamine Hemigalactarate [Example 16]	11	100%	7	16	–
(3-Benzo[3,4-d]1,3-dioxolan-5-yloxypropyl)methylamine Hemigalactarate [Example 34]	16600	41%	–	–	–
Cyclopropyl(3-(3-pyridyloxy)propyl)amine Hemigalactarate [Example 25]	165	51%	10	9	–
Dimethyl(3-(3-(methylamino)propoxy)phenyl)amine Hemigalactarate [Example 31]	10000	16%	–	–	–
Dimethyl(3-(3-pyridyloxy)propyl)amine Hemigalactarate [Example 11]	126	32%	5	8	–
Dimethyl(4-(3-pyridyloxy)butyl)amine Hemigalactarate [Example 14]	3410	24%	–	–	–
Ethyl(3-(3-pyridyloxy)propyl)amine Hemigalactarate [Example 22]	66	57%	13	13	–
Methyl(1-methyl-3-(3-pyridyloxy)propyl)amine Hemigalactarate [Example 26]	138	49%	20	16	–
Methyl(2-(3-pyridyloxy)ethyl)amine Hemigalactarate [Example 8]	65	143%	0	0	–
Methyl(3-(2-methyl(3-pyridyloxy))propyl)amine Hemigalactarate [Example 21]	236	69%	15	0	–
Methyl(3-(3-nitrophenoxy)propyl)amine Hemigalactarate [Example 28]	392	67%	9	10	–
Methyl(3-(5-(phenylmethoxy)(3-pyridyloxy))propyl)amine Hemigalactarate [Example 19]	2	38%	3	1	–
Methyl(3-(5-isopropoxy-3-pyridyloxy)propyl)amine Monogalactarate [Example 18]	21	36%	0	22	–
Methyl(3-(5-methoxy-3-pyridyloxy)propyl)amine Hemigalactarate [Example 17]	15	54%	5	10	–
Methyl(3-(6-methyl(3-pyridyloxy))propyl)amine Hemigalactarate [Example 20]	12	77%	–	0	–
Methyl(3-tricyclo[7.3.1.0<5,13>]tridec-2-yloxypropyl)amine Hemigalactarate [Example 32]	100000	–	–	–	–
Methyl(4-(3-pyridyloxy)butyl)amine Hemigalactarate [Example 13]	5520	56%	–	–	–
